Results reported in patent publication US9012448B2, “1,2,4-triazolo[4,3-a]pyridine derivatives and their use as positive allosteric modulators of MGLUR2 receptors” (Janssen Pharmaceuticals, Inc., priority 2010, dated 2015).

Key:
human mGluR2 receptor = target: T1, human mGluR2 receptor (Homo sapiens, UniProt Q14416); assay: [35S]GTPγS binding assay, hmGluR2 PAM (membranes from transfected CHO cells, glutamate at EC20); assay type: biochemical; details: for EC50: in presence of mGluR2 agonist glutamate at a predetermined EC20 concentration, pEC50 = -log EC50 (M), at least 8 concentrations; for GTPγS - hmGluR2 PAM Emax / Emax: relative maximal effect (maximal % effect relative to the control glutamate response), glutamate at EC20
T1 construct: expressed in transfected cells; host or cells: CHO cells (membrane preparation)
T1 sequence (Q14416 19-872): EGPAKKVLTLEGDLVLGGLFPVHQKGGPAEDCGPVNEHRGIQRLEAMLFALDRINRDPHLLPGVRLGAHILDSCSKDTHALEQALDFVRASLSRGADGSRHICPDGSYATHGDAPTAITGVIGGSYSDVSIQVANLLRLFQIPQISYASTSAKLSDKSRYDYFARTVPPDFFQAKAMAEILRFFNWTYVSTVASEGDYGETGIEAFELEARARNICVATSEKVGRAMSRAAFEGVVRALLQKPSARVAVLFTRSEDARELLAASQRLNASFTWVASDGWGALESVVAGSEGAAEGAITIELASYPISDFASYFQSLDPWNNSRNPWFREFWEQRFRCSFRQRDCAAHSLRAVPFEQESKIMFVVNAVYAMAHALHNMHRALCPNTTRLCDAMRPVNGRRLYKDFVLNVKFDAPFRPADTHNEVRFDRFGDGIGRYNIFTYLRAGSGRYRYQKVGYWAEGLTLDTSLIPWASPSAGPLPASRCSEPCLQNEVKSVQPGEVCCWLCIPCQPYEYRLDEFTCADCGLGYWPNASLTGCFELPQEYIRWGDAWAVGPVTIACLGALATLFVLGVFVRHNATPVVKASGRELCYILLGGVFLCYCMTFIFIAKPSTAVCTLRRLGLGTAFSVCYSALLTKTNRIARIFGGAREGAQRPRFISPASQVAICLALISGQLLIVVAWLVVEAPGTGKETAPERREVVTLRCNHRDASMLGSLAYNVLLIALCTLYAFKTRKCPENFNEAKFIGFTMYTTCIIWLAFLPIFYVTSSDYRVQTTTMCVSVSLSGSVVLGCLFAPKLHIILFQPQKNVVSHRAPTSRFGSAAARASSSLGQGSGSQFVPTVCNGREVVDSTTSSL
Text: The compounds provided in the present invention are positive allosteric modulators of mGluR2. These compounds appear to potentiate glutamate responses by binding to an allosteric site other than the glutamate binding site. The response of mGluR2 to a concentration of glutamate is increased when compounds of Formula (I) are present. Compounds of Formula (I) are expected to have their effect substantially at mGluR2 by virtue of their ability to enhance the function of the receptor. The effects of positive allosteric modulators tested at mGluR2 using the [^35S]GTPγS binding assay method described below and which is suitable for the identification of such compounds, and more particularly the compounds according to Formula (I), are shown in Table 3.
The [^35S]GTPγS binding assay is a functional membrane-based assay used to study G-protein coupled receptor (GPCR) function whereby incorporation of a non-hydrolysable form of GTP, [^35S]GTPγS (guanosine 5′-triphosphate, labelled with […] ^35S), is measured. The G-protein a subunit catalyzes the exchange of guanosine 5′-diphosphate (GDP) by guanosine triphosphate (GTP) and on activation of the GPCR by an agonist, [^35S]GTPγS, becomes incorporated and cannot be cleaved to continue the exchange cycle (Harper (1998) Current Protocols in Pharmacology 2.6.1-10, John Wiley & Sons, Inc.). […] Here we describe the use of the [^35S]GTPγS binding assay using membranes from cells transfected with the human mGluR2 receptor and adapted from Schaffhauser et al. ((2003) Molecular Pharmacology 4:798-810) for the detection of the positive allosteric modulation (PAM) properties of the compounds of this invention.
CHO-cells were cultured to pre-confluence and stimulated with 5 mM butyrate for 24 h. Cells were then collected by scraping in PBS and cell suspension was centrifuged (10 min at 4000 RPM in benchtop centrifuge). Supernatant was discarded and pellet gently resuspended in 50 mM Tris-HCl, pH 7.4 by mixing with a vortex and pipetting up and down. The suspension was centrifuged at 16,000 RPM (Sorvall RC-5C plus rotor SS-34) for 10 minutes and the supernatant discarded. The pellet was homogenized in 5 mM Tris-HCl, pH 7.4 using an ultra-turrax homogenizer and centrifuged again (18,000 RPM, 20 min, 4° C.). The final pellet was resuspended in 50 mM Tris-HCl, pH 7.4 and stored at −80° C. in appropriate aliquots before use. Protein concentration was determined by the Bradford method (Bio-Rad, USA) with bovine serum albumin as standard.
Measurement of mGluR2 positive allosteric modulatory activity of test compounds was performed as follows. Test compounds and glutamate were diluted in assay buffer containing 10 mM HEPES acid, 10 mM HEPES salt, pH 7.4, 100 mM NaCl, 3 mM MgCl2 and 10 μM GDP. Human mGlu2 receptor-containing membranes were thawed on ice and diluted in assay buffer supplemented with 14 μg/ml saponin. Membranes were pre-incubated with compound alone or together with a predefined (˜EC20) concentration of glutamate (PAM assay) for 30 min at 30° C. After addition of [^35S]GTPγS (f.c. 0.1 nM), assay mixtures were shaken briefly and further incubated to allow [^35S]GTPγS incorporation on activation (30 minutes, 30° C.). Final assay mixtures contained 7 μg of membrane protein in 10 mM HEPES acid, 10 mM HEPES salt, pH 7.4, 100 mM NaCl, 3 mM MgCl2, 10 μM GDP and 10 μg/ml saponin. Total reaction volume was 200 μl. Reactions were terminated by rapid filtration through Unifilter-96 GF/B plates (Perkin Elmer, Massachusetts, USA) using a 96-well filtermate universal harvester. Filters were washed 6 times with ice-cold 10 mM NaH2PO4/10 mM Na2HPO4, pH 7.4. Filters were then air-dried, and 40 μl of liquid scintillation cocktail (Microscint-O) was added to each well. Membrane-bound radioactivity was counted in a Microplate Scintillation and Luminescence Counter from Perkin Elmer. […]

| Structure (SMILES) | EC50 (human mGluR2 receptor) [M] | GTPγS - hmGluR2 PAM Emax (human mGluR2 receptor) [%] | Emax (human mGluR2 receptor) [%] | melting point [°C] |
| --- | --- | --- | --- | --- |
| CC1(c2ccccc2F)COCCN1Cc1ccn2c(CC3CC3)nnc2c1C(F)(F)F (single isomer, unassigned) [Compound 4a, 3-(Cyclopropylmethyl)-7-{[(3*R)-3-(2-fluorophenyl)-3-methylmorpholin-4-yl]methyl}-8-(trifluoromethyl)[1,2,4]triazolo[4,3-a]pyridine] | 1.82e-07 | 108 | – | – |
| CC1(c2ccccc2F)COCCN1Cc1ccn2c(CC3CC3)nnc2c1C(F)(F)F (single isomer, unassigned) [Compound 4b, 3-(Cyclopropylmethyl)-7-{[(3*S)-3-(2-fluorophenyl)-3-methylmorpholin-4-yl]methyl}-8-(trifluoromethyl)[1,2,4]triazolo[4,3-a]pyridine] | 1.95e-07 | 52 | – | – |
| CC1(c2ccc(F)cc2F)COCCN1Cc1ccn2c(CC3CC3)nnc2c1C(F)(F)F (single isomer, unassigned) [Compound 5a, 3-(Cyclopropylmethyl)-7-{[(3*R)-3-(2,4-difluorophenyl)-3-methylmorpholin-4-yl]methyl}-8-(trifluoromethyl)[1,2,4]triazolo[4,3-a]pyridine] | 2e-07 | 101 | – | – |
| CC1(c2ccc(F)cc2F)COCCN1Cc1ccn2c(CC3CC3)nnc2c1C(F)(F)F (single isomer, unassigned) [Compound 5b, 3-(Cyclopropylmethyl)-7-{[(3*S)-3-(2,4-difluorophenyl)-3-methylmorpholin-4-yl]methyl}-8-(trifluoromethyl)[1,2,4]triazolo[4,3-a]pyridine] | 1.38e-07 | 126 | – | – |
| FC(F)(F)c1c(CN2CCOC[C@H]2c2ccccc2)ccn2c(CC3CC3)nnc12 [Compound 1, 3-(Cyclopropylmethyl)-7-[[(3R)-3-phenyl-4-morpholinyl]methyl]-8-(trifluoromethyl)-1,2,4-triazolo[4,3-c]pyridine] | 1.7e-07 | – | 238 | 69.2 |
| FC(F)(F)c1c(CN2CCOC[C@@H]2c2ccccc2)ccn2c(CC3CC3)nnc12 [Compound 2, 3-(Cyclopropylmethyl)-7-[[(3S)-3-phenyl-4-morpholinyl]methyl]-8-(trifluoromethyl)-1,2,4-triazolo[4,3-c]pyridine] | 4.27e-07 | – | 136 | – |
